# In US20050222266A1, “2-indanylamino derivatives for the therapy of chronic pain” (priority 2002, published 2005):
# Where a name gives a salt, the structure may show the parent alone.
# Experiments:
# [1] = system: ion channel associated to NMDA receptors; assay: inhibiting activity on NMDA-associated ion channel; assay type: biochemical
# [2] = system: acute pain, hot plate 51° C.; assay: hot-plate test, rats; assay type: in vivo; settings: 15 min
# Experimental: The effect of CHF 3381 was studied in acute pain with hot-plate test described by Eddy et al (1953). The test was performed on an electrically heated and thermostatically controlled copper surface, set to a temperature of 55 or 51° C. with mice and rats, respectively.
# The animals were confined to the hot plate by a transparent observation chamber and the latency to the response consisting of licking of the hind paws, was measured. A cut-off period of 60 sec was used to avoid tissue damage.
# After i.p. administration, CHF 3381 (30-45-60 and 100 mg/kg in mouse; 30-37-45 and 60 mg/kg in rats), produced a significant and dose-dependent increase in the latency of the hindpaw licking response compared to vehicle-treated animals (Table 6).
# [3] = system: formalin-induced flinching and licking behavior; assay: formalin model of inflammatory pain in rats; assay type: in vivo
# [4] = system: formalin-induced licking and flinching; assay: mice paw formalin test, acute treatment; assay type: in vivo; settings: for Late phase licking/flinching time: 10 to 40 min; for Early phase licking/flinching time: first 5 min
# Experimental: The mice paw formalin test was performed as described by Wheeler-Aceto et al. (Psychopharmacology 104:35-44, 1991). Briefly, the day before the formalin injection, mice were placed individually into clear plastic cylinders for 30 minutes of adaptation. The day of testing 20 μl of 1% formalin was injected into the plantar surface of the left hind paw and the animals were again placed into the plastic cylinder for the behavioural observation. The amount of time, in seconds, the animals spent licking and flinching (L/F) the injected paw for the first 5 min (early phase), and then from 10 to 40 min(late phase) after formalin injection, was used as measurement of intensity of pain. CHF 3381 10-100 mg/kg i.p. and 25-200 mg/kg p.o. or the corresponding vehicles, were administered 15 and 30 min before formalin injection, respectively.
# NMDA receptors channels = settings: displacement of [3H]-TPC; cited from earlier work
# [5] = system: cold allodynia produced by CCI; assay: Chronic Constriction Injury (CCI) model, cold allodynia; assay type: in vivo, rat
# Experimental: The potential analgesic activity of CHF 3381 was evaluated the Chronic Constriction Injury (CCI) model described by Bennett et al (Pain 1988, 33: 87-107). Briefly, the rat left common sciatic nerve was exposed, and proximal to the sciatic trifurcation about 10 mm of nerve was freed of adhering tissue and four ligatures (4.0 silk ) were loosely tied around it with about 1 mm of spacing.
# Two tests of hind limb withdrawal to thermal and cold stimuli were employed in this study. Each test was repeated on both the operated hind paw and the controlateral hind paw.
# Cold allodynia was assessed in operated rats, confining them into a clear plastic cylinders placed upon a metal floor chilled by an underlying water bath. A thermistor placed on the floor indicated a surface temperature of about 5° C. In this experimental condition, after the ligation operated rats respond by lifting the affected hind paw elevated above the floor. […] A maximum cut-off time of 20 sec was set to avoid any possible interference with the sensitivity of the animal to respond to subsequent exposure to the cold stimulus. Animals were pre-screened twice with 20 min interval between tests, in order to select for animals displaying clear signs of cold allodynia, i.e. animals with a paw withdrawal latency on the ligated side of <13 sec in both trials.
# The animals were then assigned to groups consisting of at least 10 animals per group. CHF 3381 (10-30-60 mg/kg i.p.) or vehicle were administered to animals 7-14 days after ligation and cold allodynia tested 1 and 2 hours after treatment. CHF 3381 also reversed cold allodynia produced by CCI. This effect was again observed to be both time- and dose-dependent with the results generally concurring with those from the thermal hyperalgesia studies. The effect was maximum at 60-120 min after the administration and significant at the two higher tested doses (Table 1).
# rat MES model = settings: cited from earlier work
# seizure models = settings: in vivo; cited from earlier work
# MAO (mono amino oxidase) = assay: MAO inhibiting activity; assay type: biochemical
# rotarod test, rats = settings: rat, in vivo, 15 min before test
# Experimental: The side-effect profile of CHF 3381 was then evaluated in the rotarod test both in mice and rats. The day before the execution of the test, mice and rats were trained to maintain their equilibrium on the test apparatus. For mice, training consisted of 3 subsequent 2 min attempts on a rod rotating from 4.5 r.p.m. to 16.5 r.p.m.; for rats, of 3 subsequent 1 min attempts at 8 rpm (Kinnard and Carr, 1957). The morning of the test day, mice and rats were again tested on the rotarod and only animals able to maintain their equilibrium on the rod were retained for the experimental procedure. CHF 3381 was administered p.o. or i.p. to groups of at least 8 animals 15 min (time of peak effect for neurotoxicity) before the execution of the test. All controls received the corresponding vehicle. The number of mice falling during a 2-min test period and the number of rats falling for 3 subsequent 1-min attempts were used for the calculation of the respective doses at which 50% of the animals display neurotoxicity (TD50).
smiles,measurement,setting,value
"NC(=O)CNC1Cc2ccccc2C1 [CHF 3381, N-2(indanyl)-glicinamide hydrochloride]",inhibiting activity towards ion channel associated to NMDA receptors,[1],inhibiting activity
same,latency of the hindpaw licking response,[2]; 30 mg/kg i.p.,22.44 ± 2.07 s
same,latency of the hindpaw licking response,[2]; 37 mg/kg i.p.,26.24 ± 2.22 s
same,latency of the hindpaw licking response,[2]; 45 mg/kg i.p.,39.59 ± 3.56 s
same,latency of the hindpaw licking response,[2]; 60 mg/kg i.p.,42.80 ± 3.27 s
same,flinching and licking behavior during the early and late nociceptive phases,[3],clearly suppressed
same,Late phase licking/flinching time,[4]; 10 mg/kg i.p.,165 ± 26 s
same,Early phase licking/flinching time,[4]; 10 mg/kg i.p.,95 ± 8 s
same,Late phase licking/flinching time,[4]; 25 mg/kg p.o.,92 ± 25 s
same,Early phase licking/flinching time,[4]; 25 mg/kg p.o.,99 ± 8 s
same,Late phase licking/flinching time,[4]; 30 mg/kg i.p.,58 ± 1 s
same,Early phase licking/flinching time,[4]; 30 mg/kg i.p.,59 ± 9 s
same,Late phase licking/flinching time,[4]; 50 mg/kg p.o.,30 ± 9 s
same,Early phase licking/flinching time,[4]; 50 mg/kg p.o.,72 ± 7 s
same,Late phase licking/flinching time,[4]; 60 mg/kg i.p.,17 ± 5 s
same,Early phase licking/flinching time,[4]; 60 mg/kg i.p.,32 ± 7 s
same,Late phase licking/flinching time,[4]; 100 mg/kg i.p.,2 ± 2 s
same,Early phase licking/flinching time,[4]; 100 mg/kg i.p.,17 ± 4 s
same,Late phase licking/flinching time,[4]; 100 mg/kg p.o.,23 ± 16 s
same,Early phase licking/flinching time,[4]; 100 mg/kg p.o.,46 ± 7 s
same,Late phase licking/flinching time,[4]; 200 mg/kg p.o.,12 ± 10 s
same,Early phase licking/flinching time,[4]; 200 mg/kg p.o.,47 ± 4 s
same,acute and tonic formalin-induced licking response,"[4]; mice, 100 mg/kg p.o. and 60 mg/kg i.p.",almost completely blocked
same,Ki,NMDA receptors channels,8.8 µM
same,Allodynia paw withdrawal latency,"[5]; 10 mg/kg i.p., 60 min",7.75 ± 1.36 s
same,Allodynia paw withdrawal latency,"[5]; 10 mg/kg i.p., 120 min",8.71 ± 1.88 s
same,Allodynia paw withdrawal latency,"[5]; 30 mg/kg i.p., 60 min",9.96 ± 1.70 s
same,Allodynia paw withdrawal latency,"[5]; 30 mg/kg i.p., 120 min",9.89 ± 1.70 s
same,Allodynia paw withdrawal latency,"[5]; 60 mg/kg i.p., 60 min",11.2 ± 1.33 s
same,Allodynia paw withdrawal latency,"[5]; 60 mg/kg i.p., 120 min",12.68 ± 1.63 s
same,anti-convulsivant activity,rat MES model,anti-convulsivant activity
same,antagonism of 4-aminopyridine- and bicuculline-induced tonic seizures,seizure models,weaker antagonist
same,behavioral effects and lethality of systematically administered NMDA,seizure models,antagonize
same,"effect against maximal electroshock seizures, picrotoxin- and NMDA-induced hind limb tonic extension",seizure models,very effective
same,effect against pentylentetrazole- and picrotoxin-induced clonic seizures,seizure models,ineffective
same,inhibiting activity towards MAO,MAO (mono amino oxidase),inhibiting activity
same,TD50 at 15 min,"rotarod test, rats; ip, i.p. administration",113 mg/kg
same,TD50 at 15 min,"rotarod test, rats; oral administration",299 mg/kg
